± gives the uncertainty stated by the source.
Experiment: xn = mol fraction of the nth substance listed

BrC(Br)Br + CO
318 K, 101.33 kPa
Settings	viscosity [mPa·s]
x1 = 0.163	0.6935 ± 0.039
x1 = 0.3122	0.8844 ± 0.039
x1 = 0.4563	1.043 ± 0.039
x1 = 0.7234	1.261 ± 0.039
x1 = 0.8987	1.383 ± 0.039

C=Cc1ccccc1 + CO
viscosity [mPa·s], 101.33 kPa
Settings	x1 = 0.1005	x1 = 0.192	x1 = 0.3007	x1 = 0.4018	x1 = 0.4981	x1 = 0.5994	x1 = 0.7011	x1 = 0.8049	x1 = 0.8981
298.15 K	0.591 ± 0.032	0.623 ± 0.033	0.65 ± 0.034	0.669 ± 0.035	0.679 ± 0.036	0.686 ± 0.036	0.692 ± 0.036	0.701 ± 0.037	0.706 ± 0.037
303.15 K	0.55 ± 0.03	0.583 ± 0.031	0.608 ± 0.033	0.618 ± 0.033	0.634 ± 0.034	0.642 ± 0.034	0.646 ± 0.034	0.655 ± 0.035	0.661 ± 0.035
308.15 K	0.515 ± 0.029	0.543 ± 0.03	0.569 ± 0.031	0.587 ± 0.032	0.594 ± 0.032	0.598 ± 0.032	0.602 ± 0.032	0.61 ± 0.033	0.617 ± 0.033

CCC(C)(C)OC + CO
298.15 K, 101.33 kPa
Settings	viscosity [mPa·s]
x1 = 0.005	0.55 ± 0.005
x1 = 0.0339	0.554 ± 0.005
x1 = 0.0488	0.556 ± 0.005
x1 = 0.0714	0.557 ± 0.005
x1 = 0.1129	0.555 ± 0.005
x1 = 0.1508	0.552 ± 0.005
x1 = 0.1987	0.546 ± 0.005
x1 = 0.2009	0.546 ± 0.005
x1 = 0.2338	0.541 ± 0.005
x1 = 0.2861	0.532 ± 0.005
x1 = 0.3409	0.524 ± 0.005
x1 = 0.379	0.516 ± 0.005
x1 = 0.4252	0.508 ± 0.005
x1 = 0.4676	0.5 ± 0.005
x1 = 0.5142	0.491 ± 0.005
x1 = 0.5503	0.486 ± 0.005
x1 = 0.6236	0.477 ± 0.005
x1 = 0.6574	0.473 ± 0.005
x1 = 0.6944	0.468 ± 0.006
x1 = 0.7437	0.462 ± 0.006
x1 = 0.7936	0.457 ± 0.006
x1 = 0.8642	0.45 ± 0.006
x1 = 0.9029	0.446 ± 0.006

CCCCCCCCO + CO
viscosity [mPa·s], 101 kPa
Settings	298.15 K	308.15 K	318.15 K
x2 = 0.05	6.856 ± 0.066	4.941 ± 0.047	3.665 ± 0.034
x2 = 0.1	6.367 ± 0.061	4.633 ± 0.044	3.463 ± 0.032
x2 = 0.15	5.895 ± 0.056	4.331 ± 0.04	3.263 ± 0.03
x2 = 0.2	5.44 ± 0.051	4.035 ± 0.037	3.065 ± 0.028
x2 = 0.25	5.002 ± 0.047	3.746 ± 0.034	2.87 ± 0.026
x2 = 0.3	4.581 ± 0.043	3.464 ± 0.031	2.676 ± 0.024
x2 = 0.35	4.176 ± 0.038	3.189 ± 0.029	2.485 ± 0.022
x2 = 0.4	3.789 ± 0.034	2.921 ± 0.026	2.296 ± 0.02
x2 = 0.45	3.418 ± 0.031	2.661 ± 0.024	2.11 ± 0.018
x2 = 0.5	3.064 ± 0.027	2.41 ± 0.021	1.927 ± 0.017
x2 = 0.55	2.727 ± 0.024	2.166 ± 0.019	1.748 ± 0.015
x2 = 0.6	2.408 ± 0.021	1.933 ± 0.017	1.573 ± 0.014
x2 = 0.65	2.106 ± 0.018	1.708 ± 0.015	1.403 ± 0.012
x2 = 0.7	1.823 ± 0.016	1.495 ± 0.013	1.239 ± 0.011
x2 = 0.75	1.559 ± 0.013	1.292 ± 0.011	1.081 ± 0.0094
x2 = 0.8	1.314 ± 0.011	1.101 ± 0.0095	0.9299 ± 0.0081
x2 = 0.85	1.089 ± 0.0093	0.9227 ± 0.008	0.787 ± 0.007
x2 = 0.9	0.8845 ± 0.0077	0.7578 ± 0.0067	0.6532 ± 0.0059
x2 = 0.95	0.7018 ± 0.0062	0.6071 ± 0.0055	0.5296 ± 0.0049

BrC(Br)Br + COC(C)=O
viscosity [mPa·s], 101 kPa
Settings	x1 = 0.0997	x1 = 0.1981	x1 = 0.2985	x1 = 0.406	x1 = 0.5052	x1 = 0.6046	x1 = 0.7016	x1 = 0.7984	x1 = 0.89
298.15 K	0.4806 ± 0.0065	–	0.7148 ± 0.0078	0.8716 ± 0.0086	1.039 ± 0.0097	1.215 ± 0.011	1.403 ± 0.013	1.6 ± 0.015	1.783 ± 0.016
303.15 K	0.4671 ± 0.0063	0.5871 ± 0.007	0.6791 ± 0.0074	0.8247 ± 0.0083	0.9763 ± 0.0092	1.141 ± 0.01	1.297 ± 0.012	1.5 ± 0.014	1.671 ± 0.015
308.15 K	0.4465 ± 0.0063	0.5511 ± 0.0068	0.6431 ± 0.0073	0.7797 ± 0.008	0.9244 ± 0.0089	1.07 ± 0.0098	1.207 ± 0.011	1.405 ± 0.013	1.57 ± 0.014
313.15 K	0.4263 ± 0.0062	0.511 ± 0.0067	0.6007 ± 0.007	0.7368 ± 0.0078	0.8701 ± 0.0086	1.009 ± 0.0094	1.141 ± 0.01	1.317 ± 0.012	1.471 ± 0.014

CC(C)(C)N + COC(C)=O
303.15 K, 101 kPa
Settings	viscosity [mPa·s]
x1 = 0.1513	0.3868 ± 0.0035
x1 = 0.247	0.4006 ± 0.0036
x1 = 0.3175	0.4155 ± 0.0037
x1 = 0.4152	0.4301 ± 0.0038
x1 = 0.5361	0.4379 ± 0.0038
x1 = 0.7023	0.4413 ± 0.0039
x1 = 0.771	0.4432 ± 0.0039
x1 = 0.8641	0.4438 ± 0.0039

BrC(Br)Br + COCCO
viscosity [mPa·s], 101.3 kPa
Settings	x1 = 0.097	x1 = 0.198	x1 = 0.297	x1 = 0.401	x1 = 0.499	x1 = 0.6	x1 = 0.697	x1 = 0.798	x1 = 0.9
298.15 K	1.922 ± 0.024	2.097 ± 0.026	2.22 ± 0.028	2.27 ± 0.028	2.245 ± 0.028	2.183 ± 0.027	2.094 ± 0.026	2.003 ± 0.025	1.932 ± 0.024
303.15 K	1.719 ± 0.022	1.872 ± 0.024	1.984 ± 0.025	2.03 ± 0.025	2.014 ± 0.025	1.972 ± 0.025	1.909 ± 0.024	1.842 ± 0.023	1.794 ± 0.023
308.15 K	1.549 ± 0.02	1.68 ± 0.021	1.774 ± 0.022	1.825 ± 0.023	1.817 ± 0.023	1.792 ± 0.023	1.748 ± 0.022	1.702 ± 0.022	1.676 ± 0.021

CC(C)(C)N + COCCO
308.15 K, 101 kPa
Settings	viscosity [mPa·s]
x2 = 0.13	0.5293 ± 0.0071
x2 = 0.2516	0.6631 ± 0.0087
x2 = 0.3656	0.7913 ± 0.01
x2 = 0.4727	0.9167 ± 0.012
x2 = 0.5735	1.035 ± 0.013
x2 = 0.6668	1.083 ± 0.014
x2 = 0.7583	1.115 ± 0.014
x2 = 0.8432	1.152 ± 0.015
x2 = 0.9237	1.187 ± 0.015

BrC(Br)Br + CS(C)=O
Settings	viscosity [mPa·s]
298 K, 101.3 kPa, x1 = 0.0899	2.155 ± 0.028
298 K, 101.3 kPa, x1 = 0.1708	2.427 ± 0.032
298 K, 101.3 kPa, x1 = 0.3448	2.816 ± 0.037
298 K, 101.3 kPa, x1 = 0.4446	2.945 ± 0.039
298 K, 101.3 kPa, x1 = 0.5453	2.944 ± 0.039
298 K, 101.3 kPa, x1 = 0.6466	2.762 ± 0.037
298 K, 101.3 kPa, x1 = 0.7553	2.544 ± 0.034
298 K, 101.3 kPa, x1 = 0.8619	2.192 ± 0.029
318 K, 101.33 kPa, x1 = 0.1216	1.568 ± 0.04
318 K, 101.33 kPa, x1 = 0.2541	1.787 ± 0.04
318 K, 101.33 kPa, x1 = 0.443	1.978 ± 0.04
318 K, 101.33 kPa, x1 = 0.5441	1.982 ± 0.04
318 K, 101.33 kPa, x1 = 0.5955	1.983 ± 0.04
318 K, 101.33 kPa, x1 = 0.8193	1.716 ± 0.04
